According to patent US7714006B1, “Methods of modifying the bioavailability of metaxalone” (King Pharmaceuticals Research & Development, Inc., priority 2001, dated 2010):

Experiment: Effects of age and gender on PK parameters, 2×400 mg data from studies 103 and 105, fed and fasted
Conditions: human, in vivo
Source text: This analysis considers the effects of age and gender on three pharmacokinetic (PK) parameters of metaxalone under fed and fasted conditions. The three parameters are: • Cmax: the observed maximum plasma concentration (ng/mL); • AUC(last): the area under the curve (AUC) to the last quantifiable concentration, as measured by the trapezoidal rule (ng-hr/mL); • AUC(inf): the AUC extrapolated to infinity (ng-hr/mL).
Because the distributions of these parameters tend to be skewed, and in accordance with generally accepted practice, all analyses are carried out after computing the natural logarithm (ln) of the values of the PK parameters from individual subjects.
The report is based primarily on two similarly designed studies in which PK parameters were determined under fed and fasted conditions for the 2×400 mg dose of metaxalone: • Study AN151607-103 (hereafter referred to as the 103 study): a four-period, randomized crossover trial with treatment conditions 2×400 mg with food, 2×400 mg without food, 1×800 mg with food, 1×800 mg without food; and • Study ELN151607-105 (hereafter referred to as the 105 study): a two-period, randomized crossover trial with treatment conditions 2×400 mg with food and 2×400 mg without food.
Using the 2×400 mg data from studies 103 and 105, Section 2.2 presents the results of analyses of the effects of age on the fed values of Cmax, AUC(last), and AUC(inf). Section 2.3 similarly reports the results of analyses of fasted values of these parameters using the 2×400 mg data from these two studies. Section 2.4 repeats the analyses of Sections 2.2 and 2.3 using the data from the 1×800 mg treatment of study 103, in combination with the 2×400 mg data from study 105. Finally, Sections 2.5 and 2.6 report the results of similar analyses using the data from studies 101 and 106, respectively.
The primary results are based on the results of linear regression models investigating the effects of age on each PK parameter. Descriptive analyses reporting parametric (Pearson) and nonparametric (Spearman) correlation coefficients between age and each PK parameter are also provided. The Pearson correlation coefficient measures the extent of the linear association between two variables and is most appropriate when the data are approximately bivariate normally distributed with no outliers. The Spearman correlation coefficient is based on the ranks of the variables. It is less sensitive to outliers, but is often also a less sensitive measure of the strength of association.
In study 103, 59 subjects were administered the 2×400 mg dose under fed conditions. The mean age was 26.1 years, with a range from 18 to 50 years. (A total of 64 subjects began the study, of which the average age was 25.6 years. Five subjects were not included in the pharmacokinetic analysis.) In study 105, 44 subjects were administered the 2×400 mg dose under fed conditions. The mean age in study 105 was 56.0 years; with a range from 18 to 81 years.
First, in the combined group of 59+44=103 subjects, Pearson and Spearman correlation coefficients between age and each of the three PK parameters were computed. The correlation coefficients and two-sided p-values from the test of the null hypothesis of no association are shown below in TABLE IIIa:
Linear regression models using the natural logarithm of each of the three PK parameters as the dependent variable and age as the independent variable were fitted in order to estimate the magnitude of the associations with age.
In study 103, the same 59 subjects were administered the 2×400 mg dose under fasted conditions. Similarly, the 44 subjects from study 105 were administered the 2×400 mg dose under fasted conditions.
First, in the combined group of n=103 subjects, Pearson and Spearman correlations between age and each of the three PK parameters were computed. The correlation coefficients and two-sided p-values from the test of the null hypothesis of no association are shown below in TABLE IVa: […]

## Cc1cc(C)cc(OCC2CNC(=O)O2)c1 (stereo not shown) [metaxalone, 5-[(3,5-dimethylphenoxy)methyl]-2 oxazolidinone]
both
  Percentage increase in AUC(inf) from age 20 to age 70: 74%
  Percentage increase in AUC(inf), 70-year-old vs 20-year-old: 95%
  Percentage increase in AUC(last) from age 20 to age 70: 78%
  Percentage increase in AUC(last), 70-year-old vs 20-year-old: 98%
  Percentage increase in Cmax from age 20 to age 70: 84%
  Percentage increase in Cmax, 70-year-old vs 20-year-old: 103%
female
  Pearson correlation coefficients age vs PK parameters, range in magnitude: 0.49-0.60
